Values joined by “and” are separate entries in the source; they are usually repeats but may differ in a detail not shown here. Identical values can stand only once. Inconclusive results are not listed.

The test has as its system BDF1 mice, s.c. Lewis lung carcinoma, T/C %. Briefly: NCI In Vivo Anticancer Drug Screen. Data for tumor model Lewis Lung Carcinoma (subcutaneous) in B6D2F1 (BDF1) mice. An outline of the steps:
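The value reflects a ratio in which the treated cohort's survival time or tumour size is compared against mice receiving only vehicle.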

The mark [1] stands for this setting: endpoint: median survival time, dose: 0.25 mg/kg/injection, schedule: Q01DX009 (ip), vehicle: Klucel (hydroxypropylcellulose) (HPC), higher = longer survival.
Where [2] appears, read: endpoint: median survival time, dose: 0.5 mg/kg/injection, schedule: Q01DX009 (ip), vehicle: Klucel (hydroxypropylcellulose) (HPC), higher = longer survival.
Where [3] appears, read: endpoint: median survival time, dose: 1.0 mg/kg/injection, schedule: Q01DX009 (ip), vehicle: Klucel (hydroxypropylcellulose) (HPC), higher = longer survival.

For the compound `CC1CN1P(=S)(N1CC1C)N1CC1C` (stereo unspecified), the T/C runs as follows: (endpoint: mean tumor weight, dose: 9.0 mg/kg/injection, schedule: Q01DX011 (ip), vehicle: carboxymethylcellulose (CMC), higher = larger tumour) 87 % of control; (endpoint: mean tumor weight, dose: 17.5 mg/kg/injection, schedule: Q01DX011 (ip), vehicle: carboxymethylcellulose (CMC), higher = larger tumour) 72 % of control; (endpoint: mean tumor weight, dose: 53.0 mg/kg/injection, schedule: Q01DX011 (ip), vehicle: carboxymethylcellulose (CMC), higher = larger tumour) 23 % of control.
For the compound `O=c1cc[nH]c(=O)o1`, the T/C reads like this: (endpoint: median survival time, dose: 1.5 mg/kg/injection, schedule: Q01DX009 (ip), vehicle: water, higher = longer survival) 102 % of control; (endpoint: median survival time, dose: 3.0 mg/kg/injection, schedule: Q01DX009 (ip), vehicle: water, higher = longer survival) 95 % of control; (endpoint: median survival time, dose: 3.12 mg/kg/injection, schedule: Q01DX008 (ip), vehicle: water, higher = longer survival) 93 % of control; (endpoint: median survival time, dose: 3.12 mg/kg/injection, schedule: Q01DX009 (ip), vehicle: water, higher = longer survival) 114 % of control; (endpoint: median survival time, dose: 6.0 mg/kg/injection, schedule: Q01DX009 (ip), vehicle: water, higher = longer survival) 94 % of control; (endpoint: median survival time, dose: 6.25 mg/kg/injection, schedule: Q01DX008 (ip), vehicle: water, higher = longer survival) 118 % of control. The T/C is 108 % of control and 243 % of control (endpoint: median survival time, dose: 6.25 mg/kg/injection, schedule: Q01DX009 (ip), vehicle: water, higher = longer survival); 106 % of control and 108 % of control (endpoint: median survival time, dose: 12.0 mg/kg/injection, schedule: Q01DX009 (ip), vehicle: water, higher = longer survival); 114 % of control (endpoint: median survival time, dose: 12.5 mg/kg/injection, schedule: Q01DX008 (ip), vehicle: water, higher = longer survival); 103 % of control and 243 % of control (endpoint: median survival time, dose: 12.5 mg/kg/injection, schedule: Q01DX009 (ip), vehicle: water, higher = longer survival); 98 % of control and 116 % of control (endpoint: median survival time, dose: 24.0 mg/kg/injection, schedule: Q01DX009 (ip), vehicle: water, higher = longer survival); 112 % of control (endpoint: median survival time, dose: 25.0 mg/kg/injection, schedule: Q01DX008 (ip), vehicle: water, higher = longer survival). In addition, the T/C (endpoint: median survival time, dose: 25.0 mg/kg/injection, schedule: Q01DX009 (ip), vehicle: water, higher = longer survival) was 107 % of control.
As to `CC(=O)OCC1CCC(NC(=O)N(CCCl)N=O)CC1` (stereo unspecified), the T/C by setting is: (endpoint: median survival time, dose: 8.0 mg/kg/injection, schedule: Q01DX001 (ip), vehicle: Klucel (hydroxypropylcellulose) (HPC), higher = longer survival) 112 % of control; (endpoint: median survival time, dose: 12.0 mg/kg/injection, schedule: Q01DX001 (ip), vehicle: Klucel (hydroxypropylcellulose) (HPC), higher = longer survival) 124 % of control; (endpoint: median survival time, dose: 18.0 mg/kg/injection, schedule: Q01DX001 (ip), vehicle: Klucel (hydroxypropylcellulose) (HPC), higher = longer survival) 163 % of control; (endpoint: median survival time, dose: 26.0 mg/kg/injection, schedule: Q01DX001 (ip), vehicle: Klucel (hydroxypropylcellulose) (HPC), higher = longer survival) 160 % of control; (endpoint: median survival time, dose: 40.0 mg/kg/injection, schedule: Q01DX001 (ip), vehicle: Klucel (hydroxypropylcellulose) (HPC), higher = longer survival) 104 % of control.
For `O=C1c2ccccc2C(=O)c2c(NCCNCCO)ccc(NCCNCCO)c21`, the T/C is 120 % of control under setting [1]; 106 % of control (endpoint: median survival time, dose: 0.25 mg/kg/injection, schedule: Q01DX009 (ip), vehicle: water, higher = longer survival); 123 % of control under setting [2]; 86 % of control (endpoint: median survival time, dose: 0.5 mg/kg/injection, schedule: Q01DX009 (ip), vehicle: saline with Tween-80, higher = longer survival); 114 % of control (endpoint: median survival time, dose: 0.5 mg/kg/injection, schedule: Q01DX009 (ip), vehicle: saline, higher = longer survival); 109 % of control (endpoint: median survival time, dose: 0.5 mg/kg/injection, schedule: Q01DX009 (ip), vehicle: water, higher = longer survival). In addition, the T/C under setting [3] is 101 % of control; the T/C (endpoint: median survival time, dose: 1.0 mg/kg/injection, schedule: Q01DX009 (ip), vehicle: saline with Tween-80, higher = longer survival) is 115 % of control; the T/C (endpoint: median survival time, dose: 1.0 mg/kg/injection, schedule: Q01DX009 (ip), vehicle: saline, higher = longer survival) is 92 % of control and 94 % of control and 108 % of control; the T/C (endpoint: median survival time, dose: 1.0 mg/kg/injection, schedule: Q01DX009 (ip), vehicle: water, higher = longer survival) is 89 % of control; the T/C (endpoint: median survival time, dose: 2.0 mg/kg/injection, schedule: Q01DX009 (ip), vehicle: Klucel (hydroxypropylcellulose) (HPC), higher = longer survival) is 89 % of control; the T/C (endpoint: median survival time, dose: 2.0 mg/kg/injection, schedule: Q01DX009 (ip), vehicle: acid diluted with saline, higher = longer survival) is 89 % of control. The T/C is 95 % of control (endpoint: median survival time, dose: 2.0 mg/kg/injection, schedule: Q01DX009 (ip), vehicle: saline with Tween-80, higher = longer survival); 102 % of control (endpoint: median survival time, dose: 2.0 mg/kg/injection, schedule: Q01DX009 (ip), vehicle: saline, higher = longer survival); 96 % of control and 115 % of control (endpoint: median survival time, dose: 2.0 mg/kg/injection, schedule: Q01DX009 (ip), vehicle: water, higher = longer survival); 95 % of control (endpoint: median survival time, dose: 4.0 mg/kg/injection, schedule: Q01DX009 (ip), vehicle: acid diluted with saline, higher = longer survival); 106 % of control (endpoint: median survival time, dose: 4.0 mg/kg/injection, schedule: Q01DX009 (ip), vehicle: other, higher = longer survival); 91 % of control (endpoint: median survival time, dose: 4.0 mg/kg/injection, schedule: Q01DX009 (ip), vehicle: saline, higher = longer survival). Moreover, the T/C reads like this: (endpoint: median survival time, dose: 4.0 mg/kg/injection, schedule: Q01DX009 (ip), vehicle: water, higher = longer survival) 88 % of control and 105 % of control; (endpoint: median survival time, dose: 8.0 mg/kg/injection, schedule: Q01DX009 (ip), vehicle: Klucel (hydroxypropylcellulose) (HPC), higher = longer survival) 109 % of control and 120 % of control; (endpoint: median survival time, dose: 8.0 mg/kg/injection, schedule: Q01DX009 (ip), vehicle: acid diluted with saline, higher = longer survival) 90 % of control; (endpoint: median survival time, dose: 8.0 mg/kg/injection, schedule: Q01DX009 (ip), vehicle: other, higher = longer survival) 103 % of control; (endpoint: median survival time, dose: 8.0 mg/kg/injection, schedule: Q01DX009 (ip), vehicle: saline, higher = longer survival) 95 % of control; (endpoint: median survival time, dose: 8.0 mg/kg/injection, schedule: Q01DX009 (ip), vehicle: water, higher = longer survival) 88 % of control. The T/C is, setting by setting: (endpoint: median survival time, dose: 10.0 mg/kg/injection, schedule: Q## X004 (ip), vehicle: saline, higher = longer survival) 97 % of control; (endpoint: median survival time, dose: 16.0 mg/kg/injection, schedule: Q01DX009 (ip), vehicle: Klucel (hydroxypropylcellulose) (HPC), higher = longer survival) 107 % of control; (endpoint: median survival time, dose: 16.0 mg/kg/injection, schedule: Q01DX009 (ip), vehicle: acid diluted with saline, higher = longer survival) 100 % of control; (endpoint: median survival time, dose: 16.0 mg/kg/injection, schedule: Q01DX009 (ip), vehicle: saline, higher = longer survival) 99 % of control; (endpoint: median survival time, dose: 16.0 mg/kg/injection, schedule: Q01DX009 (ip), vehicle: water, higher = longer survival) 102 % of control; (endpoint: median survival time, dose: 20.0 mg/kg/injection, schedule: Q## X004 (ip), vehicle: saline, higher = longer survival) 93 % of control. In addition, where the note is “endpoint: median survival time, dose: 40.0 mg/kg/injection, schedule: Q## X004 (ip), vehicle: saline, higher = longer survival”, the T/C was 93 % of control.
Consider `COc1cccc(/C=C/[N+](=O)[O-])c1`, for which the T/C (endpoint: median survival time, dose: 20.0 mg/kg/injection, schedule: Q01DX009 (ip), vehicle: saline with Tween-80, higher = longer survival) was 104 % of control.
Consider `Nc1nc(=S)c2[nH]cnc2[nH]1`, for which the T/C by setting is: under setting [2], 108 % of control; under setting [3], 117 % of control; (endpoint: median tumor weight (est.), dose: 0.67 mg/kg/injection, schedule: Q01DX011 (ip), vehicle: alkali diluted with saline, higher = larger tumour) 80 % of control; (endpoint: median tumor weight (est.), dose: 1.0 mg/kg/injection, schedule: Q01DX011 (ip), vehicle: alkali diluted with saline, higher = larger tumour) 24 % of control.
With `C[C@@H]1C[C@@H]([C@H](O)CC2CC(=O)NC(=O)C2)C(=O)[C@@H](C)C1`, the T/C is 62 % of control and 81 % of control (endpoint: mean tumor weight, dose: 15.0 mg/kg/injection, schedule: Q01DX011 (ip), vehicle: carboxymethylcellulose (CMC), higher = larger tumour); 50 % of control and 57 % of control (endpoint: mean tumor weight, dose: 30.0 mg/kg/injection, schedule: Q01DX011 (ip), vehicle: carboxymethylcellulose (CMC), higher = larger tumour).
For the compound `COc1c(Cl)cc2c(c1OC)N(C)C1N3C(=O)C4(C)SSC3(C(=O)N4C)C(O)C21O` (stereo unspecified), the T/C by setting is: (endpoint: median survival time, dose: 0.12 mg/kg/injection, schedule: Q01DX009 (ip), vehicle: Klucel (hydroxypropylcellulose) (HPC), higher = longer survival) 96 % of control; under setting [1], 94 % of control; under setting [2], 96 % of control.
For `NC(=O)c1[nH]nc(C2OC(CO)C(O)C2O)c1O` (stereo unspecified), the T/C runs as follows: (endpoint: median survival time, dose: 1.73 mg/kg/injection, schedule: Q04DX003 (iv), vehicle: saline, higher = longer survival) 191 % of control; (endpoint: median survival time, dose: 5.2 mg/kg/injection, schedule: Q04DX003 (iv), vehicle: saline, higher = longer survival) 117 % of control; (endpoint: median survival time, dose: 15.6 mg/kg/injection, schedule: Q04DX003 (iv), vehicle: saline, higher = longer survival) 69 % of control.
As for `CC(C)=CCCC(C)CCO` (stereo unspecified), where the note is “endpoint: mean tumor weight, dose: 100.0 mg/kg/injection, schedule: Q01DX011 (ip), vehicle: carboxymethylcellulose (CMC), higher = larger tumour”, the T/C was 72 % of control.
Regarding `CC1=C2C(=C[C@@](C)(CO)[C@@H]2O)C(=O)[C@](C)(O)C12CC2`, the T/C by setting is: (endpoint: mean tumor weight, dose: 0.05 mg/kg/injection, schedule: Q01DX011 (ip), vehicle: saline, higher = larger tumour) 113 % of control; (endpoint: mean tumor weight, dose: 0.1 mg/kg/injection, schedule: Q01DX011 (ip), vehicle: saline, higher = larger tumour) 102 % of control; (endpoint: mean tumor weight, dose: 0.2 mg/kg/injection, schedule: Q01DX011 (ip), vehicle: saline, higher = larger tumour) 92 % of control; (endpoint: mean tumor weight, dose: 0.4 mg/kg/injection, schedule: Q01DX011 (ip), vehicle: saline, higher = larger tumour) 19 % of control and 41 % of control; (endpoint: mean tumor weight, dose: 0.6 mg/kg/injection, schedule: Q01DX011 (ip), vehicle: saline, higher = larger tumour) 20 % of control.

Values taken from PubChem BioAssay AID270 (DTP/NCI, 2004).
